Assay results from patent US9920383B2, “Active substances for increasing the stress defense in plants to abiotic stress, and methods of finding them” (Bayer Intellectual Property GMBH, priority 2005, dated 2018).

Experiments:
Type in all cases: in vivo, maize cv. Lorenzo
maize plants [1] = assay: Heat stress experiment with maize plants, seed dressing with active substance
Description: Maize seeds cv. Lorenzo were dressed as in example 1 with the compound 4-cyclopropylaminocarbonyl-N-(2-methoxybenzoyl)benzenesulfonamide (=VIII-3) or treated only with solvent without active substance. The seedlings were raised for 10 days in the controlled-environment chamber under defined conditions, likewise as described in example 1.2×10 pots with maize plants were used for the heat stress experiment. The control group consisted of undressed plants (solvent), the test group of plants which had been dressed with active substance. To apply the heat stress conditions, both plant groups were placed for 2 days into a controlled-environment cabinet at 45′C, white light, long day (16 hours fight, 8 hours dark) and 70% atmospheric humidity. To avoid desiccation as the result of the high temperature, the plants were irrigated once per day from below by raising the water level in a tray. After the heat stress, it was observed that—especially in the control group—the shoots of many plants had collapsed and that the leaves were lying flat on the ground.
The experiment was valued quantitatively, taking into consideration the following criteria.
After the heat treatment, the plants which had collapsed were counted and the result per pot was assessed:
Thereafter, all plants were grown on for 2 weeks under standard conditions. Then, the length increment of the individual plants was measured, and the survival rate of the plants per pot was determined: […]

maize plants [2] = assay: Drought stress experiment with maize plants, seed dressing with active substance; details: for Relative dry matter [%]: relative to control group 2 (−S/−D)
Protocol: Maize seeds cv. Lorenzo were dressed with the compound 4-cyclopropylamino-carbonyl-N-(2-methoxybenzoyl)benzenesulfonamide (=VIII-3). To this end, 10 g of seeds were incubated with 20 mg of active substance dissolved in 2 ml of methylene chloride, with gentle shaking, until the solvent had evaporated (approx. 30 minutes). The seeds of the control group were only dressed with solvent. Thereafter, the treated seeds were placed into pots with compost (diameter 10 cm, in each case 10 seeds per pot), and the maize seedlings were raised for 10 days in a controlled-environment chamber under defined light, moisture and temperature conditions [white light, long day (16 hours light, 8 hours dark), 70% atmospheric humidity, 24° C.]. In each case 2×10 pots were used for the control groups and for the drought stress experiment. While the plants were raised, they were watered from below for 20 minutes every 2 days by raising the water level in a tray. 10 days after the seeds had germinated, the maize plants were exposed to the drought stress. To this end, the plants of control group 1 (without dressing with active substance) and of the test group (with dressing with active substance) were only irrigated every 7 days as described above. In the case of the plants of control group 2 (without dressing with active substance) and of the test group 2 (with dressing with active substance), the normal irrigation regime was reclaimed. After 3 weeks of drought stress conditions, the experiment was evaluated as follows. The aerial plant parts were cut off and dried overnight at 50° C. On the next day, the foliar biomass was determined in [g] (dry matter) per pot.
The data were averaged over the in each case 10 pots of the plant group. The numerical values shown in table 1 are relative values in [%] relative to the data obtained with the control group 2 (without dressing with active substance, normal irrigation regime).

[3] = system: Zm.10097.1.A1_at expressed protein; assay: Gene expression profiling (maize genome array), drought stress; details: vs unstressed solvent-dressed control
Protocol: (§1) Maize seeds cv. Lorenzo were dressed as described in example 1 with the compound VIII-3 (=4-cyclopropylaminocarbonyl-N-(2-methoxybenzoyl)benzenesulfonamide) or with solvent. The plants were raised for 10 days in a controlled-environment chamber (conditions: see example 1).
(§2) Thereafter, the plants were exposed to the following stress conditions: • (1) Heat stress: 6 h at 45° C. • (2) Drought stress: 7 days without irrigation, 24° C.
(§3) The control plants of the specific experimental group were kept under the standard conditions described in example 1 (temperature, irrigation).
(§4) After the stress treatment, the leaves of the stressed plants and of the unstressed control plants were harvested, shock-frozen in liquid nitrogen and stored at −80° C. until processed. All experiments were carried out in replications of in each case 2 pots.
(§5) The labeled RNA probes for the DNA chip hybridization were prepared as described in the protocols (Expression Analysis. Technical Manual) from Affymetrix (Affymetrix Inc., 3380 Central Expressway, Santa Clara, Calif., USA). First, total RNA was isolated from in each case 500 mg of the harvested leaves. In each case 10 μg of total RNA were used for the cDNA first- and second-strand synthesis. The cDNA was amplified with T7 polymerase and simultaneously labeled with biotin-UTP. In each case 20 μg of this biotinylated […] were employed for the hybridization of the maize genome array from Affymetrix. This DNA microarray contains DNA sequences whose totality represents 13339 genes. Thereafter, the DNA microarrays were washed in the Affymetrix Fluidics Station, stained with streptavidin/phycoerythrin (Molecular Probes, P/N S-866) and scanned with the appropriate Agilent Laser Scanner (Agilent Gene Array Scanner). The fluorescence data obtained were analyzed using Affymetrix's Microarray Suite 5 software. After the quality assurance had been performed, all DNA chip analyses were stored in a database. To determine relevant expression values (induction factors, repression factors), the absolute expression values of the genes from the respective stress experiments were compared with the values of the respective control experiments (i.e. without abiotic stress and solvent-dressing only), based on the scoring function predetermined by the Affymetrix software. The resulting 4 expression values per gene were averaged by calculating the median value. These median values are shown in the results tables as induction factors. Similarity comparisons of expression profiles of various experiments and cluster analyses were carried out using the “genedata expressionist” software from Genedata (Genedata, Maulbeerstr. 46, CH-4016 Basel, Switzerland).
(§6) The induction patterns derived from table 5 and which are shown directly by the resulting expression values show characteristic inductions by the action of the compound 4-cyclopropylaminocarbonyl-N-(2-methoxybenzoyl)benzenesulfonamide (=VIII-3), the effect on the putative N-carbamyl-L-amino acid amidohydrolase [Zm.11840.1.A1_at] and on the putative serine carboxypeptidase [Zm18994.2.A1-at] being most pronounced. • b) Under dried stress conditions, i.e. the tested maize plants (dressed with 2 mg a.i. 4-cyclopropylaminocarbonyl-N-(2-methoxybenzoyl)benzenesulfonamide/g seeds) were exposed to a temperature of 24° C. for 7 hours 7 days after germination.
(§7) • Condition A: drought stress (7 days, 24° C.) • Condition B: Seeds dressed with 4-cyclopropylaminocarbonyl-N-(2-methoxybenzoyl)benzenesulfonamide (VIII-3)/NO drought stress • Condition C: Seeds dressed with 4-cyclopropylaminocarbonyl-N-(2-methoxybenzoyl)benzenesulfonamide (VIII-3)+drought stress (7 days, 24° C.).

[4] = system: Zm.18273.1.S1_at regulatory protein-like; assay: as above; details: vs unstressed solvent-dressed control
Protocol: as §1, §2, §3, §4, §5, §6, §7

[5] = system: Zm.3633.4.A1_at wound induced protein (fragment); assay: as above; details: vs unstressed solvent-dressed control
Protocol: as §1, §2, §3, §4, §5, §6, §7

[6] = seeds dressed, after heat stress
[7] = seeds dressed with VIII-3 (2 mg a.i./g seeds), NO drought stress
[8] = seeds dressed with VIII-3 + drought stress (7 days, 24° C.)

Structure (SMILES): COc1ccccc1C(=O)NS(=O)(=O)c1ccc(C(=O)NC2CC2)cc1 [VIII-3, 4-cyclopropylaminocarbonyl-N-(2-methoxybenzoyl)benzenesulfonamide]
- Interim score (collapsed plants) (maize plants [1]; +S/+H: seeds dressed, heat stress 2 days 45° C, one symbol per pot (10 pots)): ◯◯◯◯◯◯◯◯◯◯
- "standing" of the plants after heat stress (maize plants [1]; [6]): considerably better
- survival rate compared with the control group (maize plants [1]; [6]): significantly higher
- Relative dry matter [%] (maize plants [2]; +S/+D: seeds dressed (20 mg per 10 g seeds), 3 weeks drought stress): 80%
- Relative dry matter [%] (maize plants [2]; +S/−D: seeds dressed, normal irrigation (no drought stress)): 100%
- average foliar biomass (dry matter) over the undressed control plant (maize plants [2]; under drought stress (control group 1 vs test group 1)): significantly increased
- induction factor Zm.10097.1.A1_at, Condition B [3, 7]: 1.27
- induction factor Zm.10097.1.A1_at, Condition C [3, 8]: 3.29
- induction factor Zm.18273.1.S1_at, Condition B [4, 7]: 0.95
- induction factor Zm.18273.1.S1_at, Condition C [4, 8]: 2.91
- induction factor Zm.3633.4.A1_at, Condition B [5, 7]: 0.74
- induction factor Zm.3633.4.A1_at, Condition C [5, 8]: 3.03
